SMILES strings stand for the structures.

In experiment [1] the test system is REC-1 T474I cell lines. As to the kind of experiment: Cell proliferation assay REC-1 BTK T474I knock-in cells (ATPlite, 72 hours). The conditions noted are these: Homo sapiens, Rec1; 72 hours; read-out: IC50 REC-1 T474I. The class given is cell-based. The essentials:
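REC-1 cells carrying CRISPR knock-in mutant BTK, single-cell cloned and sequence-confirmed, were exposed to compound for 72 h and read by ATPlite luminescence. Percentage growth was calculated against the signal at the start of incubation and against untreated 0.3% DMSO wells as maximum growth.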

For experiment [2], the system named is wt-BTK, BTK C481S, BTK T474I and BTK C481S/T474I expressing 293 cells. As to the kind of experiment: Cell based washout, pBTK (Tyr223) Western blot. Further details: species or system human. The conditions noted are these: 1000 nM compound 2 hours, washed twice, harvested 0-24 hours; also cell lines expressing mutant BTK. As for the experimental part:
In vitro cellular (mutant) BTK inhibition, and inhibitor wash-out Generation of human wt-BTK, BTK C481S, BTK T474I, and BTK C481S/T474I expressing GripTite 293 MSR cells.
GripTite 293 MSR cells (Thermo Fisher, cat. no. R79507), here after referred to as 293 cells, were cultured in DMEM/F-12, GIutaMAX™ supplement medium (Thermo Fisher cat. no. 10565018) supplemented with 1% Penicilline/Streptomycine (Thermo Fisher cat. no. 15140122) 10% fetal bovine serum (Biowest, cat. no. Si181 0-500), 1× MEM Non-Essential Amino Acids (Thermo Fisher cat. no. 11140050) and 50 μg/ml Geneticin (Thermo Fisher cat. no. 10131035). Cells were transfected, with pEF6/V5-HisB (Thermo Fisher cat. no. V96120) expression vectors containing either full-length wildtype-BTK (canonical sequence NM_000061), BTK C481 S, BTK T474I or BTK C481 S/T474I (BaseClear) using Lipofectamine™ 3000 (Invitrogen). Because the stop codon at the end of the coding sequence of BTK has been conserved, the His-tag present in the expression vector is not being used. Immediately after transfection, cells were cultured in medium without Geneticin, and after 24 hours 50 μg/ml geneticin was added. 48 hours after transfection, medium was removed and replaced by medium containing both geneticin (50 μg/ml) and blasticidin (10 μg/ml) S HCl (Thermo Fisher, cat. no. A1113903). The resulting transfectants were cultured under blasticidin selection pressure for 18-35 passages to obtain stable wild-type BTK (wt-BTK), BTK C481S, BTK T474I, and BTK C481 S/T474I expressing cell pools. Stability of the (mutant) BTK expression in the 293 cell pools was confirmed by poly-acrylamide gel electrophoresis followed by Western blotting (FIG. 1A). […] For both experiments 10 μg of protein was separated on 4-12% Bis-Tris polyacrylamide gels.
Wild-type BTK, BTK C481S, BTK T474I or BTK C481 S/T474I expressing 293 cells were lysed in lysis buffer supplemented with protease inhibitors (Merck, cat. no. P8340) and phosphatase inhibitors (Thermo Fisher, cat. no. 78426). The protein concentration was determined with a Pierce BCA protein assay kit (Thermo Fisher, cat. no. 23227). Lysates were diluted to a concentration of 1 μg/μl in NuPage® LDS Sample Buffer (Thermo Fisher, cat. no. NP0008) with 167 mM DTT (Acros Organics, cat. no. 10686841) and denatured for 5 minutes at 95° C. The samples (10 μg protein) were, together with a pre stained protein ladder (Thermo Fisher, cat. no. 26616), separated on 4-12% Bis-Tris polyacrylamide gels (Thermo Fisher, cat. no. NP0324BOX). Separated protein was subsequently transferred, in methanol free transfer buffer (Thermo Fisher, cat. no. 35045), to a nitrocellulose membrane (Thermo Fisher, cat. no. 88018). Blots were first immunologically stained with phospho-BTK (Tyr223) rabbit mAb (Cell Signaling, cat. no. 5082S), and beta-actin rabbit mAb (Cell Signaling, cat. no. 4967S), followed by peroxidase conjugated goat anti-rabbit IgG (Cell Signaling, cat. no. 7074S). Afterwards, antibodies were removed using Western-blot stripping buffer (Thermo Fisher cat. no. 46428) and staining was repeated with a (total-)BTK mouse mAb (Abnova, cat. no. MAB0798), followed by peroxidase conjugated horse anti-mouse IgG (Cell Signaling, cat. no. 7076S). For all blots the colour development was performed with ECL horseradish peroxidase substrate (BioRad, cat. no. 170-5060).
Wild-type BTK, BTK C481S, BTK T474I, and BTK C481 S/T474I expressing 293 cells were growing exponentially when seeded in culture medium, without blasticidin, at a density of 2,000,000 cells/4 ml/well, in 25 cm^2 cell culture flasks (Greiner Bio-one, cat. no. 690175). Flasks were placed in a 37° C. C02-incubator for 16-24 hours after which 1 ml culture medium containing 5000 nM of the compound of Example 46 or Example 201, or Example 184, or Example 204, or Example 45 or (+/−) Loxo-305, or 0.05% DMSO (no compound) was added. 2 hours after addition of the inhibitors (0h) cells are either collected or washed twice with 5 ml culture medium. […]

The target in experiment [3] is full-length wt-BTK enzyme (Homo sapiens (Human), UniProt Q06187). As to the kind of experiment: Biochemical kinase assay wt-BTK (IMAP). The essentials: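 IMAP fluorescence polarization assay: 1.2 nM enzyme pre-incubated 1 h with compound at room temperature, then 50 nM fluorescein-labeled MBP-derived peptide and 4 μM ATP added. Reaction ran 2 h at room temperature in the dark before quenching with IMAP binding solution.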
Sequence of full-length wt-BTK enzyme (Q06187 whole entry): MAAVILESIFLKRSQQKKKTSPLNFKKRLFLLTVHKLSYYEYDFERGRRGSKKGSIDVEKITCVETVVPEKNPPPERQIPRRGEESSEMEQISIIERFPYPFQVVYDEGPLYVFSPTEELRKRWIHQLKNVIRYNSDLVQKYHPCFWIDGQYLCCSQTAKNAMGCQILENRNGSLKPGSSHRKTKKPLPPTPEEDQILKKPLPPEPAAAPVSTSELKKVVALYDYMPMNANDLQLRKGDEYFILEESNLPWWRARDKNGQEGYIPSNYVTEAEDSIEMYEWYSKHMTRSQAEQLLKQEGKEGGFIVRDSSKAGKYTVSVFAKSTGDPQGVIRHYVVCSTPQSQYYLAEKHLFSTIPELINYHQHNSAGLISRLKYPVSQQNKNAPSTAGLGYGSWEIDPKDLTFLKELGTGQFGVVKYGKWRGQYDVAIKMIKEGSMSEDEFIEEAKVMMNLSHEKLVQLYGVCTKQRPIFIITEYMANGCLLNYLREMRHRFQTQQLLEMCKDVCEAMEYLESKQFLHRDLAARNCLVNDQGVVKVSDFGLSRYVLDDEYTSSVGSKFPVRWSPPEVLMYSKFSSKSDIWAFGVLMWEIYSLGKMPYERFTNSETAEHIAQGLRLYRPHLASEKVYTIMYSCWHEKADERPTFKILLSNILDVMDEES

In the case of `Nc1ncc2c3c1c(-c1ccc(C(=O)Nc4cc(C(F)(F)F)ccn4)cc1)nn3[C@@H]1CCC[C@H](C1)NC(=O)CCOC/C=C/2` [Example 25], the half-inhibitory concentration (IC50) was less than 100 nM in experiment [1] and less than 5 nM in experiment [3]. Besides, the “time for which level of phosphorylated BTK (pBTK (Tyr223)) is prohibited or reduced after wash-out” value in experiment [2] is reported as “at least 6 hours”.
In the case of `C[C@@H]1CC(=O)N[C@@H]2CCC[C@H](C2)n2nc(-c3ccc(C(=O)Nc4cc(C(F)(F)F)ccn4)cc3)c3c(N)ncc(c32)/C=C/CCN1` [Example 45], the IC50 in experiment [1] was less than 100 nM; in experiment [3], less than 5 nM. For the same molecule, the “time for which level of phosphorylated BTK (pBTK (Tyr223)) is prohibited or reduced after wash-out” value in experiment [2] is reported as “at least 6 hours”.
For the molecule `N#Cc1ccnc(NC(=O)c2ccc(-c3nc4n5c(cnc(N)c35)/C=C/CCCCCC(=O)N[C@@H]3CCC[C@@H]4C3)cc2)c1` [Example 184], the IC50 in experiment [1] is less than 100 nM; in experiment [3], less than 5 nM. The “time for which level of phosphorylated BTK (pBTK (Tyr223)) is prohibited or reduced after wash-out” value in experiment [2] is recorded as “at least 6 hours”.
For `N#Cc1ccnc(NC(=O)c2ccc(-c3nc4n5c(cnc(N)c35)/C=C/CCOCCC(=O)N[C@@H]3CC[C@@H]4C3)cc2)c1` [Example 201], the half-inhibitory concentration (IC50) in experiment [1] was less than 100 nM; in experiment [3], less than 5 nM. Moreover, the “time for which level of phosphorylated BTK (pBTK (Tyr223)) is prohibited or reduced after wash-out” value in experiment [2] is reported as “at least 6 hours”.
As to `N#Cc1ccnc(NC(=O)c2ccc(-c3nc4n5c(cnc(N)c35)/C=C/CCCCCC(=O)N[C@@H]3CC[C@@H]4C3)cc2)c1` [Example 204], the IC50 in experiment [1] is less than 100 nM; in experiment [3], less than 5 nM. The “time for which level of phosphorylated BTK (pBTK (Tyr223)) is prohibited or reduced after wash-out” value in experiment [2] was “at least 6 hours”.

A word on the IC50: it is the concentration that gives 50% inhibition.

(Values after US20250074911A1, “MACROCYCLIC BTK INHIBITORS” (Crossfire Oncology Holding B.V., priority 2021, published 2025).)
